The nature of data set [1]: Plasma and brain pharmacokinetics (BBB penetration) after PO in rats. Format: in vivo. As to conditions: SD, rat, rats PO 2.5 mg/kg. The procedure: Pharmacokinetics profile of KMS88009 was obtained using ICR mice, SD rats, beagle dogs and cynomolgus monkeys. Animals were fasted overnight before KMS88009 administration. Mice were divided into 2 groups to receive KMS88009 as a single dose of 2.1 mg/kg intravenous (IV) bolus or 10 mg/kg orally (PO) by gavage. Additionally, KMS88009 was administered orally to estimate the BBB penetration in mice (10, 30 and 100 mg/kg). […] Dog received KMS88009 either as an IV bolus (1 mg/kg) via the great saphenous vein or by oral gavage (4 mg/kg). KMS88009 was administrated to monkeys as an IV bolus (1 mg/kg) via the femoral vein or by oral gavage (4 mg/kg). Vehicle for IV and PO administration was DMSO/tween-20/saline (3.3∶[…]∶79.6). All animals (n = 3 per group) were sacrificed and concentration of KMS88009 in plasma and brain were measured at 1/12, 1/4, 1/2, 1, 2, 4, 10 and 24 hr after IV administration and at 1/2, 1, 2, 4, 10 and 24 hr after PO administration. Brain samples were weighed and Daunce-homogenized in 10-fold volume of ice-chilled 4% bovine serum albumin (BSA) solution at room temperature. Plasma and brain homogenates were kept frozen at −70°C until analysis. The levels of KMS88009 were determined by the LC-MS/MS analysis. Pharmacokinetic parameters, time to the maximum concentration (Tmax), maximum concentration (Cmax), elimination half-life (T1/2), volume of distribution (Vd), clearance (Cl) and mean residual time (MRT), of KMS88009 were calculated based on plasma concentration-time data by a non-compartmental method using WinNonlin Version 5.2 (Pharsight, USA). Area under the curve from 0 to 24 hr (AUC0-24h) and area under the curve from 0 to infinity (AUCINF) were obtained by linear and log linear trapezoidal summations.

The next data set has as its target T1, CYP2D6 (Homo sapiens, UniProt P10635).
T1 construct: five CYP isozymes (CYP3A4, 1A2, 2C9, 2C19, and 2D6) from human LM; from tissue; host or cells: human liver microsomes
Description: CYP inhibition assay (Crespi, fluorescent probe). Format: in vitro ADME. The procedure: (§1) Cytochrome P450 (CYP) inhibition assay was carried out according to the principle of the Crespi assay. Fluorescent probe substrates (BD Gentest, USA) used for each CYP isozyme were: 3-cyano-7-ethoxycoumarin for CYP1A2 and CYP2C19, 7-benzyloxy-trifluoromethylcoumarin for CYP3A4, 7-methoxy-4-trifluoromethylcoumarin for CYP2C9 and 3-[2-(N,N-diethyl-N-methylamino)ethyl]-7-methoxy-4-methyl-coumarin for CYP2D6. […] All reactions were stopped by addition of 75 µL of 0.1 M tris in acetonitrile and analyzed by an LC-MS/MS product ion monitoring method on Agilent 1200 HPLC (Agilent, USA) and API-5000 mass spectrometer (Canada). IC50 value was calculated using SigmaPlot 10.0 (Systat Software Inc., USA).

A further data set deals with T2, CYP1A2 (Homo sapiens, UniProt P05177).
T2 construct: five CYP isozymes (CYP3A4, 1A2, 2C9, 2C19, and 2D6) from human LM; from tissue; host or cells: human liver microsomes
T2 sequence (P05177 1-516): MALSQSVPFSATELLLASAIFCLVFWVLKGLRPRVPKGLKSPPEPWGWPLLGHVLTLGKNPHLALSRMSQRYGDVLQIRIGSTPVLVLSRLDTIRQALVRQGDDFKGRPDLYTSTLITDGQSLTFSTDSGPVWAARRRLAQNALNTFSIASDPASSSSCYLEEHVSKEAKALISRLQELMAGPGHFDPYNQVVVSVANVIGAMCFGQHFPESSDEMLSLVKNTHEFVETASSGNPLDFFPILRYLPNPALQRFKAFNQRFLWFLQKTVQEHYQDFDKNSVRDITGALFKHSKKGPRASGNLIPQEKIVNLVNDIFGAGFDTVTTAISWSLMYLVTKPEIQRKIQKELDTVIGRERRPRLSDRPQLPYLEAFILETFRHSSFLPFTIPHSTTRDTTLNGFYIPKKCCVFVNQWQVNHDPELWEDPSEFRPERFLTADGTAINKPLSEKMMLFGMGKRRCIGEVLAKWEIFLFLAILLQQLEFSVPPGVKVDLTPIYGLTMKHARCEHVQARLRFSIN
Description: CYP inhibition assay (Crespi, fluorescent probe). Format: in vitro ADME. On the procedure: as §1

The target of a further data set is T3, CYP2C19 (Homo sapiens, UniProt P33261).
T3 construct: five CYP isozymes (CYP3A4, 1A2, 2C9, 2C19, and 2D6) from human LM; from tissue; host or cells: human liver microsomes
T3 sequence (P33261 whole entry): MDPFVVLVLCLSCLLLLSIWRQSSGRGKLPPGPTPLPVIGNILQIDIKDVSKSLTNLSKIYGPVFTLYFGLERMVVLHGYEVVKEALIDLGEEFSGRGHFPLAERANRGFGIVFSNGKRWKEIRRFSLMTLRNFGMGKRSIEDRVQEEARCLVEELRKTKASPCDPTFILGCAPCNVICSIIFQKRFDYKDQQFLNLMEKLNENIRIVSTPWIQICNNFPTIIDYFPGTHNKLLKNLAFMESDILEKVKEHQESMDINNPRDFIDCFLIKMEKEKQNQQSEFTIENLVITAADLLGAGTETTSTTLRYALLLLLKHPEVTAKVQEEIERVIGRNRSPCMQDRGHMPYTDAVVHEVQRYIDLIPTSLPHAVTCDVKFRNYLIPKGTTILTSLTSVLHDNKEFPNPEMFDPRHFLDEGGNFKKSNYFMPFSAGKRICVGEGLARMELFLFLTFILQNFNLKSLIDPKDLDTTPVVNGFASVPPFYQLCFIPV
Briefly: CYP inhibition assay (Crespi, fluorescent probe). Format: in vitro ADME. The procedure: as §1

The target of a further data set is T4, CYP2C9 (Homo sapiens, UniProt P11712).
T4 construct: five CYP isozymes (CYP3A4, 1A2, 2C9, 2C19, and 2D6) from human LM; from tissue; host or cells: human liver microsomes
T4 sequence (P11712 whole entry): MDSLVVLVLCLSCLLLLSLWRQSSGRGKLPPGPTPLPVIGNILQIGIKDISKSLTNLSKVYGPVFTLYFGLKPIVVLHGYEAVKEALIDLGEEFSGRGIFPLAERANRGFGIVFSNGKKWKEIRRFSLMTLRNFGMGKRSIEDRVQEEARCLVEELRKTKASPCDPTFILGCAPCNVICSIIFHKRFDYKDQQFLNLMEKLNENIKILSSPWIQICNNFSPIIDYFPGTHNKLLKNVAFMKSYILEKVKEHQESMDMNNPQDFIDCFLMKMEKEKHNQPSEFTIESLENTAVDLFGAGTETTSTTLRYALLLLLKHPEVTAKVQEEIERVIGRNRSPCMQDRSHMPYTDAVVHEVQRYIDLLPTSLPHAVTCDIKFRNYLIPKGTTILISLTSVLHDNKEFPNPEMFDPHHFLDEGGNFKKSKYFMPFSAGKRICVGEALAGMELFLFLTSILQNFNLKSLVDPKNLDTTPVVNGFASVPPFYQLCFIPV
Briefly: CYP inhibition assay (Crespi, fluorescent probe). Format: in vitro ADME. On the procedure: as §1

In another data set the target is T5, CYP3A4 (Homo sapiens, UniProt P08684).
T5 construct: five CYP isozymes (CYP3A4, 1A2, 2C9, 2C19, and 2D6) from human LM; from tissue; host or cells: human liver microsomes
T5 sequence (P08684 whole entry): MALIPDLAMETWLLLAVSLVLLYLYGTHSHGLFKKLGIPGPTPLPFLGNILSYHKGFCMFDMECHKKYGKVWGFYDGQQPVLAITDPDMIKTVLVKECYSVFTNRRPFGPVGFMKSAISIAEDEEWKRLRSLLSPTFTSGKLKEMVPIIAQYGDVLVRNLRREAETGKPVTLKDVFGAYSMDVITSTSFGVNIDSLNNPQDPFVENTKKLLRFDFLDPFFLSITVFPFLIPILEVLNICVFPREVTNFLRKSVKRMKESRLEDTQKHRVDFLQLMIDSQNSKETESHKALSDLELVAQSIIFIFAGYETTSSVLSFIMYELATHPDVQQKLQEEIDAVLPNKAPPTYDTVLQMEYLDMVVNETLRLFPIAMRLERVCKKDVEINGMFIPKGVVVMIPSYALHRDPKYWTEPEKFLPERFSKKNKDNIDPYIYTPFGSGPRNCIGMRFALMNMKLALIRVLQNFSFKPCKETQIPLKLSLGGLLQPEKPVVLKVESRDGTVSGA
Briefly: CYP inhibition assay (Crespi, fluorescent probe). Format: in vitro ADME. The procedure: as §1

Data set [2] can be described thus: Partition coefficient (log P), octanol-water titration. Format: physicochemical. The following applies: 23 ℃. On the procedure: Dissociation constant (pKa) and partition coefficient (log P) Dissociation constant (pKa) and partition coefficient (log P) of KMS88009 were measured by a pH-method using GLpKa (Sirius, UK). pKa was measured by titrating KMS88009 solution and calculated from the shape of the titration curve. […] Log P of KMS88009 was calculated by a two-phase acid-base titration in a mixture of water and octanol. Three separate potentiometric titrations of KMS88009 were carried out at 23 ℃ in various octanol-water (0.15 M KCl) mixtures (0.5% to 50% octanol). The initial pH was adjusted to 10.0 with standardized 0.5 M NaOH prior to each titration. Titrations were performed with standardized 0.5 M HCl to pH 1.8. The pKa and log P values were calculated using RefinementPro software (Sirius, UK). Values are expressed as the mean ± SD of 3 independent experiments.

Structures are written as SMILES. Bounds are passed on as bounds.

The source of these data is publication PMC3997483, “Aminostyrylbenzofuran Directly Reduces Oligomeric Amyloid-β and Reverses Cognitive Deficits in Alzheimer Transgenic Mice” (PLoS ONE, 2014).

T1 sequence (P10635 whole entry): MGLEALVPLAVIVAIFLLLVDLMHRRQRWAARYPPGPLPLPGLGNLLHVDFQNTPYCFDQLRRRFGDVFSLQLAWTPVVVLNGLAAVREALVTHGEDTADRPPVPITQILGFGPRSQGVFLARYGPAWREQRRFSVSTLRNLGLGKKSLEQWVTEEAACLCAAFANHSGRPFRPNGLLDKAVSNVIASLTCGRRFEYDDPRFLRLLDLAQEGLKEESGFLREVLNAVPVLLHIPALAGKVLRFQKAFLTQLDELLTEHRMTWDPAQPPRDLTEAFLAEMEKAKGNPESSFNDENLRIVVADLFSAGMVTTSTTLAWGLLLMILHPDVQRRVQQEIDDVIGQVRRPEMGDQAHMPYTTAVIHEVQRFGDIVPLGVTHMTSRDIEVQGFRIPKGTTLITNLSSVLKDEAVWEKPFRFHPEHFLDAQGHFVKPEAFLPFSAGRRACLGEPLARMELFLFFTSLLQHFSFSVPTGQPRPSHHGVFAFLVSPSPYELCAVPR

In data set [1] (brain), `COc1ccc2cc(C=Cc3ccc(N(C)C)cc3)oc2c1` [KMS88009, 6-methoxy-2-(4-dimethylaminostyryl) benzofuran] registered a Cmax of 1310 ng/g. For the same compound, the Tmax in data set [1] (plasma, same data as Table 3) is 1.7 h. Besides, in data set [1] (plasma, same data as Table 3, read-out: AUC0–24h), the AUC(0-t) was 908 ng·h/mL. Besides, the IC50 is above 50 µM against CYP2D6; 0.74 ± 0.12 µM against CYP1A2; 2.51 ± 0.21 µM against CYP2C19; 22.4 ± 1.25 µM on CYP2C9; 9.84 ± 0.15 µM against CYP3A4. This compound came in with a logP in data set [2] of 2.4 ± 0.19.
